Assay results from ChEMBL document CHEMBL5223115, “A guanidinium group is an effective mimic of the tertiary carbocation formed by isopentenyl diphosphate isomerase” (Bioorg Med Chem Lett, 2022).

Tests used:
[1] = molecular target: T1, Isopentenyl-diphosphate Delta-isomerase (Escherichia coli (strain K12), UniProt Q46822); test: Inhibition of Escherichia coli IPP isomerase
T1 sequence (Q46822 whole entry): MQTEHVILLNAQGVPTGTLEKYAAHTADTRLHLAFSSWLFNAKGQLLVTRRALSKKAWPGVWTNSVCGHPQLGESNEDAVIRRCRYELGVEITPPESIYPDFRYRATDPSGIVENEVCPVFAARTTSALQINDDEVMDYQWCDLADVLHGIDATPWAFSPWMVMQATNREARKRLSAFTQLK

[2] = Binding affinity to IPP isomerase (unknown origin) assessed as dissociation constant; parameters: species or system Homo sapiens
[3] = molecular target: T1, Isopentenyl-diphosphate Delta-isomerase; test: Binding affinity to Escherichia coli IPP isomerase assessed as inhibition constant
[4] = molecular target: T1, Isopentenyl-diphosphate Delta-isomerase; test: Competitive inhibition of Escherichia coli IPP isomerase assessed as inhibition constant by Lineweaver-burk plot analysis

IC50 [1]	SMILES	Kd [2]	Ki [3]	Ki [4]
670 µM	N=C(N)NCCC(=O)NO			
1200 µM	CS(=O)(=O)NC(=O)CCNC(=N)N			

Further lines, the compound ahead of its results:

SMILES	IC50 [1]	Kd [2]	Ki [3]	Ki [4]
NC(N)=NCP(=O)(O)CP(=O)(O)O		1.2 µM	0.12 µM	
N=C(N)NCCP(=O)(O)CP(=O)(O)O	0.7 µM		0.129 µM	0.129 µM
CN(C)CCCP(=O)(O)CP(=O)(O)O	33 µM			
CN(C)CCCC(=O)NS(C)(=O)=O	> 5000 µM			
